pIC50: −log10 of the molar value. No end group written: not given here.
Legend:
DPB1*14:01 = assay: Peptide binding to HLA-DP allele, competition assay; design: species or system human
Excerpt: (§1) Peptide binding to MHC-II requires anchor residues in certain positions and thus can be predicted using computer algorithms. Affinity can be measured experimentally using a competition assay (1). Both are excellent screening tools. However, affinity must be measured separately for each MHC-II allele. Humans express molecules encoded in four different MHC-II loci, denominated HLA-DRB1, DRB3/4/5, DP and DQ. Allelic variation is large, and most people are heterozygous at each locus, thus expressing up to 8 relevant MHC-II alleles. CD4 T cell responses strictly require that the antigenic peptide binds to the relevant MHC-II.
(§2) To identify peptides that could potentially be used in human patients, 30 peptides were screened for binding to 26 HLA alleles by competition assay.

DQB1*05:01 = assay: Peptide binding to HLA-DQ allele, competition assay; design: species or system human
Excerpt: as §1, §2

DPB1*05:01 = assay: Peptide binding to HLA-DP allele, competition assay; design: species or system human
Excerpt: as §1, §2

DPB1*04:02 = assay: as above; design: species or system human
Excerpt: as §1, §2

DPB1*04:01 = target: T1, DPB1*04:01 (Homo sapiens, UniProt P04440); assay: as above
T1 sequence (P04440 30-258): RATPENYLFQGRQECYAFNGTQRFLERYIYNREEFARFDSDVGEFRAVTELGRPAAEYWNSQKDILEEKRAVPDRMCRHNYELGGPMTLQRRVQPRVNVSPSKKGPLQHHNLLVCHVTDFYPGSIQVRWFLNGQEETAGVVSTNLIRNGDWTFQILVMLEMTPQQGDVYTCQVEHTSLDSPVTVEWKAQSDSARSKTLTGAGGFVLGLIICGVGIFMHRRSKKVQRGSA
T1 sequence (P20036 29-260 partner): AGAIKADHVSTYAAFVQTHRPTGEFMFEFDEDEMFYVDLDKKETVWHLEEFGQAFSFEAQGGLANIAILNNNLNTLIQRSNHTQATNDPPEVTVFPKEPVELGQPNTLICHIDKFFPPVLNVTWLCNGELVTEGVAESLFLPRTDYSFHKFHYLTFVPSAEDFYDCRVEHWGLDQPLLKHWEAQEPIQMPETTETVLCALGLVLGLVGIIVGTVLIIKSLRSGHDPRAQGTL
Excerpt: as §1, §2

DQB1*06:02 = assay: Peptide binding to HLA-DQ allele, competition assay; design: species or system human
Excerpt: as §1, §2

DPB1*02:01 = assay: Peptide binding to HLA-DP allele, competition assay; design: species or system human
Excerpt: as §1, §2

| pIC50 (DPB1*14:01) | pIC50 (DQB1*05:01) | pIC50 (DPB1*05:01) | pIC50 (DPB1*04:02) | pIC50 (DPB1*04:01) | pIC50 (DQB1*06:02) | pIC50 (DPB1*02:01) | Molecule |
| --- | --- | --- | --- | --- | --- | --- | --- |
| 4.86 | 7.89 |  |  |  |  |  | CC[C@H](C)[C@H](NC(=O)[C@H](CC(C)C)NC(=O)[C@H](Cc1ccc(O)cc1)NC(=O)[C@@H](NC(=O)[C@H](Cc1ccccc1)NC(=O)[C@@H](N)CCCCN)[C@@H](C)O)C(=O)N[C@@H](CC(N)=O)C(=O)N[C@@H](Cc1ccc(O)cc1)C(=O)N[C@H](C(=O)N[C@@H](CCC(N)=O)C(=O)N[C@@H](CC(=O)O)C(=O)N[C@@H](CCC(=O)O)C(=O)N[C@H](C(=O)N[C@@H](CC(N)=O)C(=O)N[C@H](C(=O)O)[C@@H](C)O)[C@@H](C)CC)[C@@H](C)CC [Peptide 3563.0025] |
|  |  | 5.18 | 5.79 | 4.85 | 4.62 |  | CC(C)C[C@H](NC(=O)[C@H](CC(C)C)NC(=O)[C@H](CC(C)C)NC(=O)[C@H](CC(C)C)NC(=O)[C@H](C)NC(=O)[C@@H]1CCCN1C(=O)[C@H](CC(C)C)NC(=O)[C@H](C)NC(=O)[C@H](CC(C)C)NC(=O)[C@H](CC(C)C)NC(=O)[C@H](C)NC(=O)[C@H](CC(C)C)NC(=O)[C@H](CC(C)C)NC(=O)[C@H](C)NC(=O)[C@@H]1CCCN1)C(=O)O [Peptide 3563.001] |
| 5.07 | 5.44 |  |  |  | 4.41 |  | CC[C@H](C)[C@H](NC(=O)[C@H](CC(C)C)NC(=O)[C@@H](N)CC(C)C)C(=O)N[C@@H](CC(=O)O)C(=O)N[C@H](C(=O)N[C@H](C(=O)N[C@H](C(=O)N[C@@H](Cc1ccc(O)cc1)C(=O)N[C@@H](CC(C)C)C(=O)N[C@H](C(=O)N[C@@H](C)C(=O)N[C@@H](CC(C)C)C(=O)N[C@H](C(=O)N1CCC[C@H]1C(=O)N[C@@H](CCC(=O)O)C(=O)O)[C@@H](C)CC)C(C)C)[C@@H](C)O)C(C)C)C(C)C [Peptide 3563.0002] |
|  | 8.40 |  | 6.74 | 5.59 | 5.61 | 5.75 | CC[C@H](C)[C@H](NC(=O)[C@H](CC(=O)O)NC(=O)[C@H](CC(C)C)NC(=O)[C@H](CC(C)C)NC(=O)[C@H](CCC(=O)O)NC(=O)[C@@H](N)CCC(N)=O)C(=O)N[C@@H](C)C(=O)N[C@@H](CC(N)=O)C(=O)N[C@@H](Cc1ccc(O)cc1)C(=O)N[C@@H](CC(C)C)C(=O)N[C@@H](CCSC)C(=O)N[C@@H](CCC(=O)O)C(=O)N[C@@H](CCC(N)=O)C(=O)N[C@H](C(=O)N[C@@H](CCC(N)=O)C(=O)O)[C@@H](C)CC [Peptide 3563.0003] |
|  | 6.16 | 5.19 |  |  | 5.74 |  | CC[C@H](C)[C@H](NC(=O)[C@H](CCC(=O)O)NC(=O)[C@H](CC(=O)O)NC(=O)[C@@H](NC(=O)[C@@H](NC(=O)[C@H](CC(N)=O)NC(=O)[C@H](C)NC(=O)[C@@H](NC(=O)[C@H](C)NC(=O)[C@@H](NC(=O)[C@H](CCCCN)NC(=O)[C@H](CC(C)C)NC(=O)[C@H](CC(=O)O)NC(=O)[C@H](Cc1c[nH]cn1)NC(=O)[C@@H](N)CC(C)C)[C@@H](C)CC)[C@@H](C)CC)[C@@H](C)CC)[C@@H](C)CC)C(=O)O [Peptide 3563.0013] |
| 5.74 |  | 6.91 | 7.29 | 6.09 | 6.05 | 7.10 | CC[C@H](C)[C@H](NC(=O)[C@H](Cc1ccc(O)cc1)NC(=O)[C@H](CCC(N)=O)NC(=O)[C@H](Cc1c[nH]cn1)NC(=O)[C@@H](NC(=O)[C@@H](N)CCC(N)=O)[C@@H](C)CC)C(=O)N[C@@H](CCSC)C(=O)N[C@@H](C)C(=O)N[C@@H](CC(C)C)C(=O)N[C@@H](CCCNC(=N)N)C(=O)N[C@@H](CCC(=O)O)C(=O)N[C@@H](CCC(=O)O)C(=O)N[C@@H](Cc1ccc(O)cc1)C(=O)N[C@@H](Cc1ccccc1)C(=O)N[C@@H](CC(=O)O)C(=O)O [Peptide 3563.0027] |
| 5.15 | 5.22 | 5.62 | 6.38 | 5.68 |  | 5.04 | CC[C@H](C)[C@H](NC(=O)[C@H](CO)NC(=O)[C@H](Cc1ccc(O)cc1)NC(=O)[C@H](CC(C)C)NC(=O)[C@H](CCCCN)NC(=O)CN)C(=O)N[C@@H](CC(C)C)C(=O)N[C@@H](CCCCN)C(=O)N[C@H](C(=O)N[C@@H](CCC(N)=O)C(=O)N[C@@H](CO)C(=O)N1CCC[C@H]1C(=O)N[C@@H](CC(C)C)C(=O)N[C@@H](Cc1ccccc1)C(=O)N[C@H](C(=O)O)[C@@H](C)O)[C@@H](C)CC [Peptide 3563.0016] |
|  | 7.41 |  | 8.36 | 7.49 |  | 7.40 | CC[C@H](C)[C@H](NC(=O)[C@H](Cc1ccc(O)cc1)NC(=O)[C@H](Cc1c[nH]cn1)NC(=O)[C@H](CC(C)C)NC(=O)[C@@H](N)Cc1ccccc1)C(=O)N[C@@H](Cc1ccccc1)C(=O)N[C@@H](CCSC)C(=O)N[C@@H](CCC(=O)O)C(=O)N[C@@H](CC(N)=O)C(=O)N[C@@H](C)C(=O)N[C@@H](Cc1ccccc1)C(=O)N[C@@H](CCC(=O)O)C(=O)N[C@@H](CC(C)C)C(=O)N1CCC[C@H]1C(=O)N[C@H](C(=O)O)[C@@H](C)O [Peptide 3563.0006] |
|  | 7.72 | 5.42 |  |  | 4.91 |  | CC[C@H](C)[C@H](N)C(=O)N[C@@H](CC(C)C)C(=O)N[C@@H](Cc1ccccc1)C(=O)N[C@@H](CO)C(=O)N[C@@H](Cc1ccc(O)cc1)C(=O)N[C@@H](Cc1ccccc1)C(=O)N[C@@H](CCC(N)=O)C(=O)N[C@@H](CC(=O)O)C(=O)N[C@@H](CC(C)C)C(=O)N[C@H](C(=O)N[C@H](C(=O)N[C@H](C(=O)N[C@@H](CC(C)C)C(=O)N1CCC[C@H]1C(=O)N[C@@H](Cc1ccccc1)C(=O)O)[C@@H](C)O)[C@@H](C)CC)C(C)C [Peptide 3563.0023] |
| 7.29 | 6.23 | 7.08 |  |  |  |  | CC(C)C[C@H](NC(=O)[C@H](CC(C)C)NC(=O)[C@H](Cc1ccccc1)NC(=O)[C@H](CCCCN)NC(=O)[C@H](CO)NC(=O)[C@H](Cc1ccc(O)cc1)NC(=O)[C@H](CC(C)C)NC(=O)[C@@H](N)CCC(N)=O)C(=O)N[C@@H](CCCCN)C(=O)N[C@@H](C)C(=O)N[C@@H](CCC(=O)O)C(=O)N1CCC[C@H]1C(=O)N[C@@H](CC(C)C)C(=O)N[C@@H](C)C(=O)N[C@@H](Cc1ccccc1)C(=O)O [Peptide 3563.0011] |
|  | 7.55 | 5.38 | 6.21 |  | 4.37 | 6.24 | LSQLTYMIQFDQYI [Peptide 3563.0012] |
| 4.81 | 6.64 | 5.17 |  |  | 5.08 | 7.92 | CC[C@H](C)[C@H](NC(=O)CNC(=O)[C@H](CCSC)NC(=O)[C@H](CC(N)=O)NC(=O)[C@@H](NC(=O)[C@@H](NC(=O)[C@H](Cc1ccccc1)NC(=O)[C@H](CCC(=O)O)NC(=O)[C@@H](N)C(C)C)C(C)C)[C@@H](C)O)C(=O)N[C@H](C(=O)N[C@H](C(=O)N1CCC[C@H]1C(=O)N[C@@H](CC(=O)O)C(=O)N[C@@H](Cc1ccccc1)C(=O)N[C@@H](C)C(=O)O)[C@@H](C)CC)[C@@H](C)CC [Peptide 3563.0007] |
| 7.82 |  | 6.66 | 7.17 | 8.68 | 5.58 | 8.48 | CC(C)C[C@H](NC(=O)[C@H](C)NC(=O)[C@H](Cc1ccccc1)NC(=O)[C@H](CO)NC(=O)[C@H](CO)NC(=O)[C@@H](NC(=O)[C@H](CCCNC(=N)N)NC(=O)[C@H](CC(C)C)NC(=O)[C@H](CCCCN)NC(=O)[C@H](CCCCN)NC(=O)[C@@H](N)Cc1ccc(O)cc1)[C@@H](C)O)C(=O)N[C@@H](CC(N)=O)C(=O)N[C@@H](CC(C)C)C(=O)N1CCC[C@H]1C(=O)N[C@H](C(=O)O)[C@@H](C)O [Peptide 3563.0022] |
|  |  | 5.04 | 4.81 | 4.60 |  | 4.63 | CC[C@H](C)[C@H](N)C(=O)N[C@@H](CC(=O)O)C(=O)N[C@@H](CC(C)C)C(=O)N[C@@H](CO)C(=O)N[C@H](C(=O)N[C@@H](CCC(N)=O)C(=O)N[C@@H](CC(N)=O)C(=O)N[C@@H](Cc1ccc(O)cc1)C(=O)N[C@@H](Cc1c[nH]cn1)C(=O)N[C@H](C(=O)N[C@@H](Cc1ccccc1)C(=O)N[C@@H](CC(C)C)C(=O)N[C@H](C(=O)N[C@@H](Cc1ccc(O)cc1)C(=O)N[C@H](C(=O)O)[C@@H](C)CC)[C@@H](C)CC)[C@@H](C)O)[C@@H](C)CC [Peptide 3563.0029] |
| 6.07 | 6.93 |  | 8.28 |  |  |  | TLTAFGFASADLLEI [Peptide 3563.0005] |
| 4.82 |  | 5.16 |  |  | 5.34 |  | CC[C@H](C)[C@H](NC(=O)[C@H](CCC(=O)O)NC(=O)[C@@H](N)CC(=O)O)C(=O)N[C@@H](CC(N)=O)C(=O)N[C@H](C(=O)N[C@H](C(=O)N[C@@H](Cc1ccccc1)C(=O)N[C@@H](CO)C(=O)N[C@@H](CC(=O)O)C(=O)N[C@@H](Cc1ccc(O)cc1)C(=O)N[C@H](C(=O)N1CCC[C@H]1C(=O)N[C@@H](Cc1ccc(O)cc1)C(=O)N[C@H](C(=O)N[C@@H](Cc1ccccc1)C(=O)O)C(C)C)[C@@H](C)CC)[C@@H](C)CC)[C@@H](C)O [Peptide 3563.0026] |
